These results are taken from US20040023855A1, “Biologic modulations with nanoparticles” (priority 2002, published 2004).

Marks after values point to notes of the source that are not given here. A value given as a limit tells only on which side of the number the result lay.

In data set [1] the test system is dog-kidney epithelial cell line MDCK II (Madin-Darby Canine Kidney). The settings on record: lactose-inhibitable, cited from earlier work.
On the set-up of data set [2]: species or system nude mice. Conditions: mouse, in vivo, im.
Data set [3] is described as follows: Maximum tolerated dose in nude mice. Conditions: without overt adverse effects. Type of data set: in vivo.
In data set [4] the test system is orthotopically implanted tumors derived from breast cancer cell line MDA-MB435. Description: Orthotopic mouse model of human breast cancer. It is filed as in vivo, nude mice. The protocol: The safety, plasma half-life, and efficacy of galectin-3C in an orthotopic mouse model of human breast cancer was evaluated. A recent feasibility study of the anticancer activity of recombinant human galectin-3 N-terminally truncated by exhaustive digestion with Clostridium histiolyticum collagenase type VII (Sigma; St. Louis, Mo.), (36, 75) in an orthotopic mouse model of metastatic breast cancer (22) produced promising results. The digestion produced a 143 amino acid residue polypeptide beginning with Gly-108. In treated animals the number of primary tumors that metastasized was less than controls by 3-fold (P=0.031), and the mean primary tumor volume of the treated animals was 61% less than the controls (P=0.009). The results provide compelling evidence that treatment with an N-terminally truncated form of galectin-3 could useful in treatment and prevention of cancer, especially metastatic cancer.
One example of the use in vivo of N-terminally truncated galectin-3 is as a potential therapeutic agent for breast cancer. It was determined that therapy with an N-terminally truncated form of galectin-3 is efficacious for inhibition of metastases. To this end, recombinant galectin-3 was produced and the N-terminally truncated galectin-3 was derived by collagenase enzyme digestion and affinity chromatography. Injected N-terminally truncated galectin-3 was detected by metabolic labeling with ^35S methionine prior to collagenase cleavage. […] Mice bearing orthotopically implanted tumors derived from breast cancer cell line MDA-MB435 were treated intramuscularly twice daily for 90 days with N-terminally truncated galectin-3 or a vehicle control. […] In a recent study at the end of the treatment period, the number of treated animals with primary tumors that metastasized was less than controls by 3-fold (P=0.031), and the mean primary tumor volume of the treated animals was 61% less than the controls (P=0.009). The results provide compelling evidence that treatment with an N-terminally truncated form of galectin-3 could useful in treatment and prevention of cancer, especially metastatic cancer. The truncated form of galectin-3 was efficacious in reducing metastases, and the tumor volumes and weights of primary tumors.

The next data set deals with Galectin-3 (Homo sapiens, UniProt P17931). Conditions: relative affinity, lactose on galectin-3 given as 1; cited from earlier work.
The subject of data set [5] is Alva-41 prostate carcinoma cells. Briefly: In vitro growth inhibition (cytotoxicity) by cisplatin nanoparticles. It is filed as cell-based, human. Conditions: at doses greater than 60 µg/ml. Here is the method:
FIG. 3 is a graph showing the in vitro cytotoxicity of nanoparticles comprising cisplatin and various cell recognition components for Alva-41, human tumor cells derived from a prostate carcinoma metastasis; and
Cisplatin was nanoencapsulated into the various candidate tumor-binding agents as described previously and nanoparticles were compared for growth inhibition in a metastatic variant of Alva-41 prostate carcinoma cells and Ca-9-22. Formulas were tested in duplicate in two separate experiments. Results are illustrated for the prostate cell line in FIG. 3. Referring to FIG. 3, PEX-MMP-l/Cisplatin refers to s50 nanoparticles comprising cisplatin and the Recombinant Pex binding domain of membrane-associated Matrix Metalloproteinase-1 (see Bello et. al, Cancer Research (2001) 61: 8730-36); Tenascin/Cisplatin refers to s50 nanoparticles having tenascin and cisplatin, FN-PHSCN/Cisplatin refers to nanoparticles comprising the FN-PHSCN fragment and cisplatin, galectin-3/cisplatin refers to s50 nanoparticles comprising recombinant N-terminally truncated galectin-3 and cisplatin, hyaluronan/cisplatin refers to s50 nanoparticles comprising hyaluronan and cisplatin, and naked cisplatin refers to the addition of free cisplatin to the cell medium. In these experiments cells were plated at 5,000 per well and followed for 72 hours. […]

Another data set concerns the target T1, Galectin-3C (Homo sapiens, UniProt P17931).
T1 construct: The digestion produced a 143 amino acid residue polypeptide beginning with Gly-108
The settings on record: relative affinity, same scale as galectin-3 column; cited from earlier work.

[6] abbreviates: intramuscularly twice daily for 90 days.

Sequence of Galectin-3 (P17931 whole entry): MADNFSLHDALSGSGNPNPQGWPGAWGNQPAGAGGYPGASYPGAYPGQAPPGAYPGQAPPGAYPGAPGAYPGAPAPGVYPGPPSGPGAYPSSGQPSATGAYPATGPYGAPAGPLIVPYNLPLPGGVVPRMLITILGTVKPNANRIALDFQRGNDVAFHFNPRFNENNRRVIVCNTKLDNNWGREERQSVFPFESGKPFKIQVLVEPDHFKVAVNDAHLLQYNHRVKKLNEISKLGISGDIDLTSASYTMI
T1 sequence (P17931 108-250): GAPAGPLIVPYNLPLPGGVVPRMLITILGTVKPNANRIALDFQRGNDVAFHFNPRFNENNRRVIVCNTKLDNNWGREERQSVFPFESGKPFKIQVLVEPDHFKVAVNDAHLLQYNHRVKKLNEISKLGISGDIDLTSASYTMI

Take “galectin-3: intact wild-type galectin-3, chimera type β-galactoside binding lectin (SEQ ID NO. 3)”: the “apically bound radiolabeled galectin-3 endocytosed” value in data set [1] (Transwell chambers) was “more than 90%”. Further, the galectin-3 transcytosed in data set [1] (after 120 min) was 20%.
Take “N-terminally truncated galectin-3: recombinant human galectin-3 truncated by collagenase digestion; 143 amino acid polypeptide beginning with Gly-108 (SEQ ID NO. 1)”: the pharmacokinetic elimination half-life in data set [2] is 4.56 h. Further, the maximum tolerated dose entry in data set [3] is listed as “greater than 125 mg/kg”. In addition, the “mean primary tumor volume less than the controls” value in data set [4] (end of treatment period, P=0.009) is 61%. Also, the “number of treated animals with primary tumors that metastasized, less than controls” value in data set [4] (end of treatment period, P=0.031) came out at 3 fold. Moreover, in data set [4] (setting [6]), the “mean tumor volumes compared with control mice” value was “statistically significantly less”, the “mean tumor weights compared with control mice” value is “statistically significantly less” and the “mice with lymph node metastases compared with control group” value is listed as “fewer numbers of mice exhibited lymph node metastases”.
On to `CO[C@H]1O[C@H](CO)[C@H](O)[C@H](O[C@H]2O[C@H](CO)[C@H](O)[C@H](O)[C@H]2O)[C@H]1O` [Galα1→3GalαOme], for which the “Relative Carbohydrate Affinities, Galectin-3” value on Galectin-3 is given as 0.2.
Turning to `N.N.[Cl][Pt][Cl]` [free cisplatin, cisplatin], the “activity compared to the other nanocapsule formulations” value in data set [5] is “greatest activity”.
With Galβ1→3GlcNAc, on Galectin-3, the “Relative Carbohydrate Affinities, Galectin-3” value is given as 6.3.
Take (LacNAc)2: the “Relative Carbohydrate Affinities, Galectin-3” value at Galectin-3 is reported as 20*. Also, the “Relative Carbohydrate Affinities, Galectin-3C” value on Galectin-3C is listed as 54.
Regarding (LacNAc)5, the “Relative Carbohydrate Affinities, Galectin-3” value at Galectin-3 is listed as 137. Moreover, the “Relative Carbohydrate Affinities, Galectin-3C” value at Galectin-3C is 60.5.
For Galβ1→4GlcNAc [Galβ1→4GlcNAc (LacNAc)], the “Relative Carbohydrate Affinities, Galectin-3” value on Galectin-3 is on record as 11.3.
Consider “Galβ1→4(Fucα1→3)GlcNAc [Galβ1→4(Fucα1→3)GlcNAc (LeX)]”, for which the “Relative Carbohydrate Affinities, Galectin-3” value at Galectin-3 was less than 0.02.
